Assays:
[1] = biological target: SF3b complex (Homo sapiens, UniProt O75533+Q7RTV0); test: Payload binding to the SF3b complex (SF3B1 binding); details: SF3B1 (WT), HELA.2, read-out: SPA-ATS GMean IC50 (nM) SF3B1 (WT) HELA.2
Protocol: Exemplary herboxidiene spliceosome modulator payloads used in the preparation of ADCs were profiled. Payloads were evaluated for binding to the SF3b complex, in vitro splicing activity, and ability to inhibit cell growth.

[2] = tested on: Ad2.2 pre-mRNA; test: In vitro splicing (IVS) assay with HeLa nuclear extract, RT-qPCR of spliced product; format: biochemical; details: payload, HELA.2, read-out: qPCR-IVS-ATS GMean IC50 (nM) Ad2.2 HELA.2
Protocol: 2.1 In Vitro Splicing (IVS)
To evaluate payload activity in a cell-free system, an in vitro splicing assay was performed. The payloads were incubated with nuclear extracts and pre-mRNA substrate minigenes.
HeLa nuclear extract preparation: HeLa S3 cell pellets were resuspended in hypotonic buffer (10 mM HEPES pH 7.9, 1.5 mM MgCl2, 10 mM KCl, 0.2 mM PMSF, 0.5 mM DTT) and the suspension was brought up to a total of 5 packed cell volume (PCV). After centrifugation, the supernatant was discarded, and the cells were brought up to 3 PCV with hypotonic buffer and incubated on ice for 10 min. Cells were lysed using a dounce homogenizer and then centrifuged. The supernatant was discarded, and the pellet was resuspended with […] packed nuclear volume (PNV) of low salt buffer (20 mM HEPES pH 7.9, 1.5 mM MgCl2, 20 mM KCl, 0.2 mM EDTA, 25% glycerol, 0.2 mM PMSF, 0.5 mM DTT), followed by 1/2 PNV of high salt buffer (same as low salt buffer except 1.4 M KCl). The nuclei were gently mixed for 30 min before centrifuging. The supernatant (nuclear extract) was then dialyzed into storage buffer (20 mM HEPES pH 7.9, 100 mM KCl, 0.2 mM EDTA, 20% glycerol, 0.2 mM PMSF, 0.5 mM DTT). Protein concentration was determined using NanoDrop 8000 UV-Vis spectrophotometer (ThermoFisher Scientific).
IVS: All Ad2-derived sequences (Pellizzoni et al. (1998) Cell 95(5):615-24) were cloned into pcDNA3.1(+) vector (Promega) using 5′ EcoRI and 3′ Xbal restriction sites. The plasmids were linearized using Xbal and used as DNA templates in in vitro transcription reactions. The FtzΔi intron-less plasmid (Luo and Reed (1999) 96(26):14937-42) was linearized using EcoRI. All RNAs were in vitro transcribed and then purified using MEGAScript T7 (Invitrogen) and MegaClear (Invitrogen) kits, respectively. For splicing reactions using Ad2 variant pre-mRNAs, […] were prepared using 8 μg nuclear extracts prepared from HeLa S3, 2 ng pre-mRNA, 0.2 ng FTZΔi, and varying concentrations of compounds or DMSO. After a 15 min pre-incubation at 30° C., 1 μL splicing activation buffer (0.5 mM ATP, 20 mM creatine phosphate, 1.6 mM MgCl2) was added, and the reactions were incubated for 90 min at 30° C. The reactions were then quenched with 13 μL DMSO, and 25 nL was used for RT-qPCR. RT-qPCR reactions were prepared using TaqMan RNA-to-CT 1-step kit (Life Technologies), RNA from splicing reactions, Ad2 (forward: […]; reverse: […]; probe: CTGTTGGGCTCGCGGTTG) and Ftz (forward: […]; reverse: […]; probe: […]) mRNA primer-probe sets. Prism 7 (Graphpad) was used for non-linear regression curve fitting of the formed spliced product and normalized to the control (DMSO) sample.

[3] = Caco-2 permeability of ADC payload; format: in vitro ADME; details: human; for efflux ratio at 2 h, 10 μM: B-A/A-B, read-out: ER; for Papp A→B at 2 h, 10 μM / Papp B→A at 2 h, 10 μM: payload at 10 μM; for Papp A→B at 2 h, 10 μM: apical to basolateral, read-out: Permeability Mean Caco-2 A-B Perm; for Papp B→A at 2 h, 10 μM: head incomplete (column between A-B and ER)
Protocol: 3.5.2 Caco-2 Permeability of ADC Payload
Caco-2 cells were cultured for 21 days in transwell 24-well plates at 37° C., 95% humidity, 5% CO2. Integrity of cell monolayer was confirmed by TEER (transepithelial electrical resistance) and Lucifer yellow. Payloads were spiked in duplicate at 10 μM, separately, on both sides of the cell monolayer. Permeability rates from the apical to basolateral (A-B) direction and the basolateral to apical (B-A) direction were determined by sampling aliquots from both chambers immediately after treatment (t=0) and following incubation for 2 hours. Samples were protein precipitated with organic solvent containing internal standard and analyzed by LC-MS/MS (SCI EX; API 5500). The area ratio responses of payload/internal standard over time in both directions were used to generate permeability (cm/sec) values. Efflux ratio was calculated by dividing B-A/A-B. Control compounds for low and high permeability and efflux behaved as expected.

[4] = Chemical stability of ADC payload in Mcilvane buffer pH 5.5; format: physicochemical; details: payload 20 μM, pH 5.5, 37° C.; for half-life at 20 μM: McIlvaine (citrate-phosphate) buffer, read-out: Stability Mean Stability t½ pH 5.5 (converted); for Stability Mean Stability % pH 5.5 t 24 h: % remaining at 24 h
Protocol: 3.5.3 Chemical Stability of ADC Payload
Herboxidiene splicing modulators were incubated in Mcilvane (Citrate-Phosphate) buffer, pH 5.5 (Boston Bioproducts; #BB-2466) at a final concentration of 20 μM (less than 0.5% DMSO from stock solution). The herboxidiene splicing modulator solution and the internal standard were pipetted into 96-well plates, ran on UPLC (Waters Acquity H class), and analyzed for initial chromatographic signal (t=0). The column was a Waters UPLC HSS T3 1.8 μm 2.1×50 mm column (#186003538). A gradient of mobile phase A from 95% to 10% was employed over 1 min, where A was 0.1% formic acid in water and mobile phase B was 0.1% formic acid in acetonitrile (flow rate 0.9 mL/min). The remainder of the herboxidiene splicing modulator solution was kept in a plate shaker at 37° C. (Eppendorf ThermoMixer). Sample analyses by UPLC were repeated at 24, 72, and 96 hours post-incubation at 37° C. The area ratio response of the herboxidiene splicing modulator and internal standard was determined for three time points: time 0, day 1, and either day 3 or day 4. Time 0 was set to 100. The area ratio responses of the later time points were compared to time 0. Percent remaining was calculated as follows: (Area Ratio day X/Area Ratio time 0)*100=% remaining. The slope of the line was calculated in Excel comparing the log of % remaining and time point.

[5] = tested on: Ad2.1; test: In vitro splicing (IVS) assay, qPCR-IVS-ATS, Ad2.1 substrate, HELA.2; format: biochemical; details: payload, read-out: qPCR-IVS-ATS GMean IC50 (nM) Ad2.1 HELA.2
[6] = tested on: THP1.1; test: Herboxidiene splicing modulator cell potency, CTGlo-ATS, THP1.1, 72 h; format: cell-based; details: for CTGIo-ATS GMean LD50 (nM) 72 h THP1.1 / CTGIo-ATS Mean MinResponse % 72 h THP1.1: payload; for GI50: read-out: CTGIo-ATS GMean GI50 (nM) 72 h THP1.1
[7] = tested on: NCIH1650.1; test: Herboxidiene splicing modulator cell potency, CTGlo-ATS, NCIH1650.1, 72 h; format: cell-based; details: for CTGIo-ATS GMean LD50 (nM) 72 h NCIH1650.1 / CTGIo-ATS Mean MinResponse % 72 h NCIH1650.1: payload; for GI50: read-out: CTGIo-ATS GMean GI50 (nM) 72 h NCIH1650.1
[8] = in vivo; cited from earlier work

Row | Molecule | IC50 [1] | IC50 [2] | efflux ratio at 2 h, 10 μM [3] | Papp A→B at 2 h, 10 μM [3] | Papp B→A at 2 h, 10 μM [3] | half-life at 20 μM [4] | Stability Mean Stability % pH 5.5 t 24 h [4] | IC50 [5] | CTGIo-ATS GMean LD50 (nM) 72 h THP1.1 [6] | CTGIo-ATS Mean MinResponse % 72 h THP1.1 [6] | GI50 [6] | CTGIo-ATS GMean LD50 (nM) 72 h NCIH1650.1 [7] | CTGIo-ATS Mean MinResponse % 72 h NCIH1650.1 [7] | GI50 [7] | plasma half-life [8]
1 | CO[C@H]([C@@H](C)[C@H]1O[C@]1(C)C[C@H](C)/C=C/C=C(\C)[C@H]1O[C@@H](CC(=O)O)C[C@@H](OC(=O)N2CCNCC2)[C@@H]1C)[C@@H](C)O [Compound H1, 2-((2R,4R,5S,6S)-6-((S,2E,4E)-7-((2R,3R)-3-((2R,3R,4R)-4-hydroxy-3-methoxypentan-2-yl)-2-methyloxiran-2-yl)-6-methylhepta-2,4-dien-2-yl)-5-methyl-4-((piperazine-1-carbonyl)oxy)tetrahydro-2H-pyran-2-yl)acetic acid] | 11.7 nM | 33.7 nM | 1.27 | 0.263 ×10⁻⁶ cm/s | 0.334 ×10⁻⁶ cm/s | 84 h | 79% | 72.6 nM | 697.273 nM | −84.238% | 114 nM | >10000 nM | 10.179% | 182 nM | 
2 | tremelimumab: fully human anti-CTLA4 antibody, IgG2 |  |  |  |  |  |  |  |  |  |  |  |  |  |  | approximately 22 days
3 | CO[C@H]([C@@H](C)[C@H]1O[C@]1(C)C[C@H](C)/C=C/C=C(\C)[C@H]1O[C@@H](CNC(=O)CCCCCOC(=O)N2CCNCC2)CC[C@@H]1C)[C@@H](C)O [Compound H5, 6-((((2R,5S,6S)-6-((S,2E,4E)-7-((2R,3R)-3-((2R,3R,4R)-4-hydroxy-3-methoxypentan-2-yl)-2-methyloxiran-2-yl)-6-methylhepta-2,4-dien-2-yl)-5-methyltetrahydro-2H-pyran-2-yl)methyl)amino)-6-oxohexyl piperazine-1-carboxylate] | 12.9 nM | 17.8 nM | 22.7 | 1.04 ×10⁻⁶ cm/s | 23.6 ×10⁻⁶ cm/s | > 168 h | >100% | 30.3 nM | 3.415 nM | −103.352% | 0.433 nM | >10000 nM | −25.308% | 0.407 nM | 
4 | Ipilimumab: fully human anti-CTLA4 antibody, IgG1 |  |  |  |  |  |  |  |  |  |  |  |  |  |  | 288 to 336 h
